Columns and labels:
[1] = biological target: T1, Recombinant full-length human IDO1 (Homo sapiens, UniProt P14902); test: IDO1 enzymatic assay (NFK quantified by LCMS); type: biochemical; conditions: 2 nM enzyme, 5 μM L-tryptophan, pH6.5, 30 minutes pre-incubation at RT; mean values when measured multiple times; read-out: hIDO activity (IC50 in nM)
T1 construct: Recombinant full-length human IDO1 with a N-terminal hexahistidine tag; hexahistidine (His6) (N); made in house; host or cells: E. coli
Outline: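 His-tagged human IDO1 (2 nM) in pH 6.5 phosphate buffer with ascorbate, methylene blue and catalase was preincubated with compound (10 μM–0.5 nM, 0.6% DMSO) for 30 min at RT. The reaction then ran with 5 μM L-Trp for 30 min. NFK was measured by LCMS against a d5-Trp standard, and IC50 was obtained by four-parameter fit.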

[2] = biological target: T2, Recombinant human TDO comprising amino acids 19-407 (Homo sapiens, UniProt P48775); test: TDO2 enzymatic assay (NFK quantified by LCMS); type: biochemical; conditions: 15 nM enzyme, 200 μM L-tryptophan, pH7, 30 minutes pre-incubation at RT; mean values when measured multiple times; read-out: hTDO activity (IC50 in nM)
T2 construct: Recombinant human TDO comprising amino acids 19-407 with a N-terminal hexahistidine tag; hexahistidine (His6) (N); made in house; host or cells: E. coli
Outline: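 NFK formed over 30 min at RT from 200 μM L-tryptophan was measured by LCMS, normalized to d5-tryptophan, after compound (0.5 nM–10 μM, duplicates, 0.6% DMSO) was preincubated 30 min with 15 nM recombinant His-tagged TDO 19-407 in phosphate buffer pH 7. IC50 from four-parameter logistic fit; repeats averaged.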

T2 sequence (P48775 19-406 limits assumed): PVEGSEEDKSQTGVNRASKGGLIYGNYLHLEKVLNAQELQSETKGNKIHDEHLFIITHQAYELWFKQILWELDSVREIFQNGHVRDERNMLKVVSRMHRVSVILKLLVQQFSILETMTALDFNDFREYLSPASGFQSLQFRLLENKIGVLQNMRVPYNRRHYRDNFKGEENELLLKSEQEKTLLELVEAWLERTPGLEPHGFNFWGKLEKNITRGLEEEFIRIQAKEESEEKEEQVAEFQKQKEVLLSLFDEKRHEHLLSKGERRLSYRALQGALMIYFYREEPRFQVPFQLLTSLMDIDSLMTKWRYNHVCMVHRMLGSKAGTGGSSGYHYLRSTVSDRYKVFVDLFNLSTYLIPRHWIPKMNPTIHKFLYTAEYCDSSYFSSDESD
T1 sequence (P14902 whole entry): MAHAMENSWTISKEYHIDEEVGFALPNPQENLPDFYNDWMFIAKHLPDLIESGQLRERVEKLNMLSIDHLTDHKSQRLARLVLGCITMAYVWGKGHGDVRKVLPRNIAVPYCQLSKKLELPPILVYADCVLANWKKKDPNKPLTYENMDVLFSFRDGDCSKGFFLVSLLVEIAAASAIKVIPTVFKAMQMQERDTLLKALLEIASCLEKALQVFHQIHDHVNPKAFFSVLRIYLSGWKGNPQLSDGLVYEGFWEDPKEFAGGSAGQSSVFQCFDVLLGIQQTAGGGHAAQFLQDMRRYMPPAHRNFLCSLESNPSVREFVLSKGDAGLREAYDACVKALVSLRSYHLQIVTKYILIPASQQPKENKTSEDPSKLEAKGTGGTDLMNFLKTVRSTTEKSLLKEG

SMILES | IC50 [1] | IC50 [2]
OC(c1cn(-c2ccc(OCC3(F)COC3)cc2)nn1)c1c(C2CC2)sc2cncn12 (racemic) [Example 145, rac-(2-Cyclopropyl-imidazo[5,1-b]thiazol-3-yl)-{1-[4-(3-fluoro-oxetan-3-ylmethoxy)-phenyl]-1H-[1,2,3]triazol-4-yl}-methanol] | 7.77 nM | > 10200 nM
O=S1(=O)CCC(COc2ccc(-n3cc(C(O)c4c(C5CC5)sc5cncn45)nn3)cc2)CC1 (racemic) [Example 147, rac-(2-Cyclopropyl-imidazo[5,1-b]thiazol-3-yl)-{1-[4-(1,1-dioxo-hexahydro-1I6-thiopyran-4-ylmethoxy)-phenyl]-1H-[1,2,3]triazol-4-yl}-methanol] | 12.9 nM | > 10200 nM
Oc1ccc(-n2cc(C(O)c3c(C4CC4)sc4cncn34)nn2)cc1Cl (racemic) [Example 148, rac-2-Chloro-4-{4-[(2-cyclopropyl-imidazo[5,1-b]thiazol-3-yl)-hydroxy-methyl]-[1,2,3]triazol-1-yl}-phenol] | 4.31 nM | 5130 nM
Oc1c(F)cc(-n2cc(C(O)c3c(C4CC4)sc4cncn34)nn2)cc1F (racemic) [Example 149, rac-4-{4-[(2-Cyclopropyl-imidazo[5,1-b]thiazol-3-yl)-hydroxy-methyl]-[1,2,3]triazol-1-yl}-2,6-difluoro-phenol] | 3.8 nM | > 10200 nM
Oc1ccc(-n2cc(C(O)c3c(C4CC4)sc4cncn34)nn2)cc1F (racemic) [Example 150, rac-4-{4-[(2-Cyclopropyl-imidazo[5,1-b]thiazol-3-yl)-hydroxy-methyl]-[1,2,3]triazol-1-yl}-2-fluoro-phenol] | 4.83 nM | 9290 nM
CC(C)(C)OC(=O)Nc1ccc(-n2cc(C(O)c3c(C4CC4)sc4cncn34)nn2)c(F)c1 (racemic) [Example 151, rac-(4-{4-[(2-Cyclopropyl-imidazo[5,1-b]thiazol-3-yl)-hydroxy-methyl]-[1,2,3]triazol-1-yl}-3-fluoro-phenyl)-carbamic Acid Tert-Butyl Ester] | 55.8 nM | > 10200 nM
OC(c1ccc(-c2ccccc2)cc1)c1c(C2CC2)sc2cncn12 (racemic) [Example 152, rac-Biphenyl-4-yl-(2-cyclopropyl-imidazo[5,1-b]thiazol-3-yl)-methanol] | 184 nM | > 10200 nM
OC(c1cccc(-c2ccccc2)c1)c1c(C2CC2)sc2cncn12 (racemic) [Example 153, rac-Biphenyl-3-yl-(2-cyclopropyl-imidazo[5,1-b]thiazol-3-yl)-methanol] | 2320 nM | > 10200 nM
Cc1sc2cncn2c1C(O)c1ccc(-c2ccccc2)s1 (racemic) [Example 154, rac-(2-Methyl-imidazo[5,1-b]thiazol-3-yl)-(5-phenyl-thiophen-2-yl)-methanol] | 366 nM | 7270 nM
Cc1sc2cncn2c1C(O)c1cnc(-c2ccccc2)s1 (racemic) [Example 155, rac-(2-Methyl-imidazo[5,1-b]thiazol-3-yl)-(2-phenyl-thiazol-5-yl)-methanol] | 734 nM | > 10200 nM
Cc1sc2cncn2c1C(O)c1cc(-c2ccccc2)no1 (racemic) [Example 156, rac-(2-Methyl-imidazo[5,1-b]thiazol-3-yl)-(3-phenyl-isoxazol-5-yl)-methanol] | 406 nM | > 10200 nM
OC(c1nnc(-c2ccccc2)o1)c1c(C2CC2)sc2cncn12 (racemic) [Example 157, rac-(2-Cyclopropyl-imidazo[5,1-b]thiazol-3-yl)-(5-phenyl-[1,3,4]oxadiazol-2-yl)-methanol] | 586 nM | > 10200 nM
OC(c1cnn(-c2ccccc2)n1)c1c(C2CC2)sc2cncn12 (racemic) [Example 158, rac-(2-Cyclopropyl-imidazo[5,1-b]thiazol-3-yl)-(2-phenyl-2H-[1,2,3]triazol-4-yl)-methanol] | 466 nM | 5440 nM
N#Cc1cccc(-c2ccc(C(O)c3c(C4CC4)sc4cncn34)s2)c1 (racemic) [Example 159, rac-3-{5-[(2-Cyclopropyl-imidazo[5,1-b]thiazol-3-yl)-hydroxy-methyl]-thiophen-2-yl}-benzonitrile] | 238 nM | 8310 nM
OC(c1ccc(-c2cccnc2)s1)c1c(C2CC2)sc2cncn12 (racemic) [Example 160, rac-(2-Cyclopropyl-imidazo[5,1-b]thiazol-3-yl)-(5-pyridin-3-yl-thiophen-2-yl)-methanol] | 230 nM | 5320 nM
COc1ccc(-c2ccc(C(O)c3c(C4CC4)sc4cncn34)s2)cc1 (racemic) [Example 161, rac-(2-Cyclopropyl-imidazo[5,1-b]thiazol-3-yl)-[5-(4-methoxy-phenyl)-thiophen-2-yl]-methanol] | 257 nM | > 10200 nM

SMILES | IC50 [1] | IC50 [2]
OC(c1ccc(-c2ccc(C(F)(F)F)cc2)s1)c1c(C2CC2)sc2cncn12 (racemic) [Example 162, rac-(2-Cyclopropyl-imidazo[5,1-b]thiazol-3-yl)-[5-(4-trifluoromethyl-phenyl)-thiophen-2-yl]-methanol] | 1250 nM | > 10200 nM
OC(c1nc(-c2ccccc2)no1)c1c(C2CC2)sc2cncn12 (racemic) [Example 163, rac-(2-Cyclopropyl-imidazo[5,1-b]thiazol-3-yl)-(3-phenyl-[1,2,4]oxadiazol-5-yl)-methanol] | 496 nM | > 10200 nM
OC(c1ccc(-c2ccccc2)s1)c1c(C2CC2)sc2cncn12 (racemic) [Example 164, rac-(2-Cyclopropyl-imidazo[5,1-b]thiazol-3-yl)-(5-phenyl-thiophen-2-yl)-methanol] | 317 nM | > 10200 nM
OC(c1ccc(-c2cccc(C(F)(F)F)c2)s1)c1c(C2CC2)sc2cncn12 (racemic) [Example 165, rac-(2-Cyclopropyl-imidazo[5,1-b]thiazol-3-yl)-[5-(3-trifluoromethyl-phenyl)-thiophen-2-yl]-methanol] | 716 nM | > 10200 nM
COc1ccccc1-c1ccc(C(O)c2c(C3CC3)sc3cncn23)s1 (racemic) [Example 166, rac-(2-Cyclopropyl-imidazo[5,1-b]thiazol-3-yl)-[5-(2-methoxy-phenyl)-thiophen-2-yl]-methanol] | 587 nM | > 10200 nM
COc1cccc(-c2ccc(C(O)c3c(C4CC4)sc4cncn34)s2)c1 (racemic) [Example 167, rac-(2-Cyclopropyl-imidazo[5,1-b]thiazol-3-yl)-[5-(3-methoxy-phenyl)-thiophen-2-yl]-methanol] | 639 nM | > 10200 nM
OC(c1ccc(-c2ccncc2)s1)c1c(C2CC2)sc2cncn12 (racemic) [Example 168, rac-(2-Cyclopropyl-imidazo[5,1-b]thiazol-3-yl)-(5-pyridin-4-yl-thiophen-2-yl)-methanol] | 189 nM | 1060 nM
Cn1nccc1-c1ccc(C(O)c2c(C3CC3)sc3cncn23)s1 (racemic) [Example 169, rac-(2-Cyclopropyl-imidazo[5,1-b]thiazol-3-yl)-[5-(2-methyl-2H-pyrazol-3-yl)-thiophen-2-yl]-methanol] | 60 nM | 2940 nM
OC(c1ccc(-c2ccccc2C(F)(F)F)s1)c1c(C2CC2)sc2cncn12 (racemic) [Example 170, rac-(2-Cyclopropyl-imidazo[5,1-b]thiazol-3-yl)-[5-(2-trifluoromethyl-phenyl)-thiophen-2-yl]-methanol] | 550 nM | 3820 nM
OC(c1ncc(-c2ccccc2)s1)c1c(C2CC2)sc2cncn12 (racemic) [Example 171, rac-(2-Cyclopropyl-imidazo[5,1-b]thiazol-3-yl)-(5-phenyl-thiazol-2-yl)-methanol] | 578 nM | > 10200 nM
N#Cc1ccccc1-c1ccc(C(O)c2c(C3CC3)sc3cncn23)s1 (racemic) [Example 172, rac-2-{5-[(2-Cyclopropyl-imidazo[5,1-b]thiazol-3-yl)-hydroxy-methyl]-thiophen-2-yl}-benzonitrile] | 272 nM | 4080 nM
N#Cc1ccc(-c2ccc(C(O)c3c(C4CC4)sc4cncn34)s2)cc1 (racemic) [Example 173, rac-4-{5-[(2-Cyclopropyl-imidazo[5,1-b]thiazol-3-yl)-hydroxy-methyl]-thiophen-2-yl}-benzonitrile] | 732 nM | > 10200 nM
Cn1nncc1-c1ccc(C(O)c2c(C3CC3)sc3cncn23)s1 (racemic) [Example 174, rac-(2-Cyclopropyl-imidazo[5,1-b]thiazol-3-yl)-[5-(3-methyl-3H-[1,2,3]triazol-4-yl)-thiophen-2-yl]-methanol] | 279 nM | 7710 nM
OC(c1nnc(-c2ccccc2)s1)c1c(C2CC2)sc2cncn12 (racemic) [Example 175, rac-(2-Cyclopropyl-imidazo[5,1-b]thiazol-3-yl)-(5-phenyl-[1,3,4]thiadiazol-2-yl)-methanol] | 122 nM | > 10200 nM
OC(c1ccc(-c2ccc3[nH]ccc3c2)s1)c1c(C2CC2)sc2cncn12 (racemic) [Example 176, rac-(2-Cyclopropyl-imidazo[5,1-b]thiazol-3-yl)-[5-(1H-indol-5-yl)-thiophen-2-yl]-methanol] | 260 nM | > 10200 nM

Source: patent US20200405696A1, “INHIBITORS OF INDOLEAMINE 2,3-DIOXYGENASE AND/OR TRYPTOPHAN 2,3-DIOXYGENASE” (IDORSIA PHARMACEUTICALS LTD, priority 2018, published 2020)
